From patent US8834855B2, “Sunscreen compositions comprising carotenoids” (Promar AS, priority 2005, dated 2014)

Tests used:
[1] = Phase distribution of carotenoids in water-ethanol/heptane extraction at different water levels; type: physicochemical; conditions: room temperature, no pH adjustment
Method: (§1) Extraction is performed in a nitrogen atmosphere in equipment covered with aluminium foil. • 1. The pH of a water suspension of the microalgae P. tricornutum (14 g dry weight per liter of water) was adjusted to 8.3 and ethanol was added to a final ratio of water:ethanol=0.3:1.0. • 2. The water-ethanol solution was extracted by mixing with heptane (water-ethanol solution:heptane=1.3:1.0) for 1 hour at 20° C. • 3. The solution was separated into three phases by centrifugation (10 minutes at 3222×g): An upper heptane phase enriched in diadinoxanthin and fucoxanthin, a lower ethanol-water phase enriched in chlorophylls and degradation products of chlorophylls, and a third mid-phase with precipitated materials. The ratio of the concentration of diadinoxanthin to fucoxanthin in the water-ethanol phase was approximately 1:6. • 4. Water was added to the water-ethanol phase until a water:ethanol ratio of 0.7:1.0 was reached. This solution was extracted by a similar amount of heptane and the phases separated by centrifugation (as in step 3). Diadinoxanthin was enriched in the heptane phase (diadinoxanthin:fucoxanthin=1:1), and fucoxanthin and fucoxanthin-derivatives in the ethanol-water phase. • 5. The heptane phase was stored overnight at −20° C. to separate fucoxanthin which was separated by centrifugation as described above. (Alternatively, the precipitated material may be removed with a pipette.) • 6. The heptane phase was used for further purification of diadinoxanthin by HPLC as described hereinbefore to yield […] of the diadinoxanthin found in the starting material. Optimization
Various parameters in the above described basic method were varied to establish the effect of water concentration, pH and temperature on the isolation method.
The method was performed at room temperature without pH adjustment.

[2] = Effects of temperature on extraction for 200 minutes, water:ethanol:heptane 1:1:1, pH 11; type: physicochemical; conditions: for amount in phase after extraction: 1:1:1, pH 11
[3] = Effects of temperature and pH on separation of diadinoxanthin from fucoxanthin (water:ethanol phase extracted with heptane); type: physicochemical
Method: as §1
(§2) Values indicated are for the amount of each compound in the indicated phase. The value in brackets indicates the % distribution between the two phases.

[4] = Recovery of initial amount after extraction at different temperature and pH (stability); type: physicochemical
Source text: as §2

[5] = Irradiation absorption in an in vitro skin model (Vitro-skin, integrating sphere transmission); conditions: Miglyol solvent, compared to a conventional SPF 60 sun lotion
Method: A commercial sunscreen SPF60 was used for comparison. Vitro−skin+miglyol was used as the control. Curve 1: Vitro−skin+Miglyol, 2: SPF60, 3:fucoxanthin at 2.76 mg/ml, 4:fucoxanthin at 0.55 mg/ml, 5:fucoxanthin at 0.25 mg/ml, 6:diadinoxanthin at 0.64 mg/ml, 7:diadinoxanthin at 0.13 mg/ml; and
The concentrations are given as the sum of the given compounds and their degradation products (cis-fucoxanthin and diadinochrome). Solid lines with squares—diadinoxanthin. Solid line with diamonds—fucoxanthin. Dashed lines illustrate a projected linear relationship.
The in vitro method of Springsteen was used (Springsteen et al., 1999, Analytica Chimica Acta, 380, p155-164). Vitro-skin was used as the skin simulator and Miglyol (Miglyol 812F Neutraloel CHG. 040906) was used as the solvent. The tests were performed with a Varian Cary 300 Conc UV-Visible Spectrophotometer (with an integrating sphere). Fucoxanthin and diadinoxanthin (isolated as described in Example 2) were tested at the concentrations indicated on FIG. 3.

[6] = water:EtOH:heptane 0:1:1, heptane phase
[7] = water:EtOH:heptane 0:1:1, water-EtOH phase
[8] = water:EtOH:heptane 0.1:1:1, heptane phase
[9] = water:EtOH:heptane 0.1:1:1, water-EtOH phase
[10] = water:EtOH:heptane 0.2:1:1, heptane phase
[11] = water:EtOH:heptane 0.2:1:1, water-EtOH phase
[12] = water:EtOH:heptane 0.4:1:1, heptane phase
[13] = water:EtOH:heptane 0.4:1:1, water-EtOH phase
[14] = NaOH-buffer, pH 12.2, 50° C., Heptane phase
[15] = NaOH-buffer, pH 12.2, 50° C., Water-EtOH phase
[16] = Phosphate, pH 11, 20° C., Heptane phase
[17] = Phosphate, pH 11, 20° C., Water-EtOH phase
[18] = Phosphate, pH 11, 50° C., Heptane phase
[19] = Phosphate, pH 11, 50° C., Water-EtOH phase

| Structure (SMILES) | phase distribution [1, 6] [%] | phase distribution [1, 7] [%] | phase distribution [1, 8] [%] | phase distribution [1, 9] [%] | phase distribution [1, 10] [%] | phase distribution [1, 11] [%] | phase distribution [1, 12] [%] | phase distribution [1, 13] [%] | amount in phase after extraction ([2]; 20 °C, Heptane phase) | amount in phase after extraction ([2]; 20 °C, Water-EtOH phase) | amount in phase after extraction ([2]; 35 °C, Heptane phase) | amount in phase after extraction ([2]; 35 °C, Water-EtOH phase) | amount in phase after extraction ([2]; 50 °C, Heptane phase) | amount in phase after extraction ([2]; 50 °C, Water-EtOH phase) | % distribution between the two phases [3, 14] | amount of compound in phase [3, 14] | % distribution between the two phases [3, 15] | amount of compound in phase [3, 15] | % distribution between the two phases [3, 16] [%] | amount of compound in phase [3, 16] | further results |
| --- | --- | --- | --- | --- | --- | --- | --- | --- | --- | --- | --- | --- | --- | --- | --- | --- | --- | --- | --- | --- | --- |
| C=Cc1c(C)c2cc3nc(c4c5[n-]c(cc6nc(cc1[n-]2)C(C)=C6CC)c(C)c5C(=O)[C@@H]4C(=O)OC)[C@@H](CCC(=O)OC/C=C(\C)CCC[C@H](C)CCC[C@H](C)CCCC(C)C)[C@@H]3C.[Mg+2] [Chl a, chlorophyll a] | 45 | 55 | 100 | 0 | 93 | 7 | 100 | 0 | 3290 | 0 | 3505 | 0 | 4010 | 0 | – | – | – | – | – | – | – |
| CC1=C(C#C/C(C)=C/C=C/C(C)=C/C=C/C=C(C)/C=C/C=C(C)/C=C/[C@@]23O[C@]2(C)C[C@@H](O)CC3(C)C)C(C)(C)C[C@H](O)C1 [diadinoxanthin] | 12 | 88 | 93 | 7 | 6 | 94 | 22 | 78 | 1155 | 170 | 1260 | 180 | 1310 | 190 | 100% | 1440 | 0 (0%) | 0 (0%) | 100 | 1500 | % distribution between the two phases [3, 17]: 0 (0%); amount of compound in phase [3, 17]: 0 (0%); % distribution between the two phases [3, 18]: 100%; amount of compound in phase [3, 18]: 1470; % distribution between the two phases [3, 19]: 0 (0%); amount of compound in phase [3, 19]: 0 (0%); Total present in both phases ([4]; NaOH-buffer, pH 12.2, 50° C.): 1440; Total present in both phases ([4]; Phosphate, pH 11, 20° C.): 1500; Total present in both phases ([4]; Phosphate, pH 11, 50° C.): 1470; stability under the temperature and pH conditions used ([4]; pH 11): stable under the conditions used; ability to absorb irradiation [5]: ability to absorb irradiation, particularly in the blue light range of the spectrum, but also in the upper UVA area |
| CC(=O)O[C@H]1CC(C)(C)C(=C=C/C(C)=C/C=C/C(C)=C/C=C/C=C(C)/C=C/C=C(\C)C(=O)C[C@@]23O[C@]2(C)C[C@@H](O)CC3(C)C)[C@](C)(O)C1 [fucoxanthin] | 7 | 93 | 49 | 51 | 2 | 98 | 3 | 97 | 1065 | 380 | 610 | 210 | 95 | 0 | 0 (0%) | 0 (0%) | 0 (0%) | 0 (0%) | 95 | 4860 | % distribution between the two phases [3, 17]: 5%; amount of compound in phase [3, 17]: 260; % distribution between the two phases [3, 18]: 95%; amount of compound in phase [3, 18]: 2745; % distribution between the two phases [3, 19]: 5%; amount of compound in phase [3, 19]: 135; Total present in both phases ([4]; NaOH-buffer, pH 12.2, 50° C.): 0; Total present in both phases ([4]; Phosphate, pH 11, 20° C.): 5120; Total present in both phases ([4]; Phosphate, pH 11, 50° C.): 2880; stability under the temperature and pH conditions used ([4]; pH 11 to 12.2, 20 to 50° C.): more sensitive to extreme temperatures and pH; stability at various temperatures ([2]; 20, 35, 50 °C, pH 11): more sensitive to higher temperatures; ability to absorb irradiation [5]: ability to absorb irradiation, particularly in the blue light range of the spectrum, but also in the upper UVA area |
